Laboratory results taken from US11096986B2, “Use of a neurofilament peptide for targeting neural stem cells” (Universite D'Angers, priority 2014, dated 2021).
Ends that are not written are not given here.

Experiments:
[1] = test system: neural stem cells; assay: CyQUANT cell proliferation assay; type: cell-based, rat
Experimental: To analyse the NFL-TBS.40-63 peptide effect on the NSC proliferation, primary neurospheres were dissociated and 5.10^3 cells per well were plated on BD Cell-Tak (BD Biosciences) on 96 well microplate. Cells were treated with increased concentrations of biotinylated NFL-TBS.40-63 peptide, or with 1 μmol/L colchicine during 72 h at 37° C. After washes with PBS, cells were freezed at −80° C. Finally, the DNA concentration was analyzed using the CyQUANT cell proliferation assay kit (Molecular Probes).

[2] = test system: neural stem cells; assay: Cell cycle analysis by PI incorporation and FACS; type: cell-based, rat
Experimental: […] Neurospheres were then collected in a microcentrifuge tube. After centrifugation (5 min at 700 rpm), cells were dissociated mechanically and permeabilized with PBS-Tween 0.5% and fixed with ethanol 70% before adding 1 mg/mL RNase (Invitrogen) during 30 min at 37° C. The cell suspension was diluted in 10 μg/mL PI before DNA content analysis by flow cytometry.

[3] = test system: neural stem cells; assay: Confocal microscopy of neurospheres (peptide uptake, α-tubulin microtubule network); type: cell-based, rat
Experimental: To visualize the NFL-TBS40-63 peptide uptake in neural stem cells, neurospheres were plated on BD Cell-Tak (BD Biosciences) coverslips or LabTek chambers. After 24 h, neurospheres were incubated with 20 μmol/L FITC labelled NFL-TBS40-63 peptide for 30 min, 6 h or 72 h. Following PBS washing, cells were fixed with 4% paraformaldehyde for 15 min and washed three times in PBS. They were then incubated in a 0.5% triton X-100 permeabilization solution for 30 min and washed three times in PBS before incubation in a blocking solution (1% bovine serum albumin in 0.1% triton X-100) for 1 h. Neurospheres were then incubated overnight at 4° C. with mouse anti-α-tubulin antibody (Sigma) 1/1000. After three washes in PBS, tubulin was localized using an Alexa 568 nm anti-mouse antibody (Life Technologies) 1/200 for 2 h. Neurospheres were washed three times with PBS before adding 3 μmol/L 4′6-diaminido-2-phenylindole (DAPI, Sigma) for 5 min. Following PBS washing, coversplips were mounted with a ProLong Gold antifade solution (Life Technologies).

[4] = test system: neural stem cells; assay: Cell viability by Annexin V/PI staining and FACS; type: cell-based, rat
Experimental: To analyse the cell viability in the presence of the NFL-TBS40-63 peptide, neurospheres were seeded in 35-mm dishes and then treated with increased concentrations of biotinylated peptide or with 1 μmol/L colchicine during 3 or 5 days at 37° C. Neurospheres were then collected in a microcentrifuge tube. After centrifugation (5 min at 700 rpm), cells were dissociated mechanically and stained with annexin-V FITC (Annexin-V FITC Kit, Miltenyi Biotec) for 15 min at room temperature. Finally, cells were counterstained with 1 μg/mL PI solution prior to analysis by flow cytometry.

[5] = test system: neural stem cells of newborn rats; assay: FACS internalization of FITC labelled peptide in neurospheres of newborn rats; type: cell-based, rat; conditions: for percentage of newborn NSCs that internalized the peptide: 30 min, FACS
Experimental: (§1) Primary cultures of neural stem cells are derived from the sub-ventricular zone of newborn (1-5 days) or adults (<4 months) brain Wistar rats. The dissociated cells were grown in MEM alpha (PAA) supplemented with 25 mmol/L D-glucose (Sigma), 1 mmol/L Na Pyruvate, 15 mmol/L HEPES, 5% penicillin/streptomycin (PAA) and 1% B27 (Gibco), and containing 20 ng/mL EGF (Promega). After 5-7 days, stem cells formed floating neurospheres.
(§2) To evaluate the internalization of the FITC labelled NFL-TBS40-63 peptide by the fluorescence-activated cell sorting technique (FACS, Becton Dickinson), neurospheres were seeded in 35-mm dishes and cultured for 30 min at 37° C. in media containing FITC labelled NFL-TBS40-63 peptide at increasing concentrations. To quench the extracellular signal of the FITC labelled NFL-TBS40-63 peptide, 0.4% trypan blue (Sigma) was added before FACS analysis. To investigate the uptake mechanism, neurospheres were preincubated at 4° C. during 30 min, or with 10 mmol/L sodium azide in the presence of 6 mmol/L 2-deoxy-D-glucose to deplete cellular ATP, or with different inhibitors during 30 min at 37° C. Then 20 μmol/L FITC labelled peptide was added to the cells for 30 min at 37 C.°. Subsequently, after centrifugation (5 min at 700 rpm), cells were dissociated mechanically and washed twice with PBS, and then re-suspended in 50 μg/mL Propidium iodide (PI, Sigma). The fluorescent positive cells that incorporated the FITC labelled peptide were analyzed by flow cytometry (FACSCalibur, Becton Dickinson).

[6] = test system: neural stem cells of adult rats; assay: FACS internalization of FITC labelled peptide in neurospheres of adult rats; type: cell-based, rat; conditions: 40 μmol/L, 30 minutes
Experimental: as §1
as §2, with “Subsequently, after centrifugation (5 min at 700 rpm), cells were dissociated mechanically and washed twice with PBS, and then re-suspended in 50 μg/mL Propidium iodide (PI, Sigma).” left out

[7] = test system: adult neural stem cells in the SVZ; assay: Intra-ventricular injection of the peptide and immunohistochemistry of the SVZ; type: in vivo, rat
Experimental: Adult females Wistar rats were anesthetized by intraperitoneal injection of a mixture of ketamine 10% (80 mg/kg) and xylazine 2% (10 mg/kg). Animals were then placed on a stereotaxic apparatus (David Kopf instruments, Tujunga, Calif.), and a sagital incision was made through the skin to expose the cranium in which a small hole was made using a dental drill, at the appropriate coordinates (−0.8 mm anterior and 1.6 mm lateral to the bregma). A volume of […] of the FITC-peptide 1 mmol/L was injected, using a 10-μL Hamilton syringe (Hamilton glass syringe 70 RN) with a 32-G needle (Hamilton, VWR), at a depth of 4.3 mm from the outer border of the cranium into the right lateral ventricle, and connected through a cannula to a 100-μL Hamilton 22-G syringe (Hamilton glass syringe 810 RN) containing the peptide. A slow-infusion was performed by convection-enhanced delivery (CED) with an osmotic pump (Harvard Apparatus) at a flow rate of 0.5 μL/min. After injection and withdrawal of the needle (0.5 mm/min), the head skin was sutured. Animals were sacrificed 1 hour, 6 hours, or 24 hours after the injection, and brains were removed and frozen, before sectioning them using a Leica cryostat. […]

[8] = test system: neural stem cells of newborn rats; assay: Uptake mechanism by FACS (4° C., ATP depletion, endocytosis inhibitors); type: cell-based, rat
Experimental: as §2

[9] = test system: neural stem cells; assay: Neurosphere forming analysis (primary neurospheres, adherence); type: cell-based, rat
Experimental: (§3) To investigate neurosphere forming properties, 5.10^3 SVZ cells were seeded per well in a 24 wells plate in media containing 20 ng/mL EGF. Cells were incubated in the absence or presence of increasing concentrations of biotinylated peptide, or with 1 μg/mL colchicine. After 5-7 days, the total number of primary neurospheres and the percent of adherent primary neurospheres were determined in each condition by microscopy analysis, and pictures were taken with an inverted microscope and the Metamorph software. Then for self-renewal assay, primary neurospheres were collected in each condition, dissociated as single cells, and seeded in media containing 20 ng/mL EGF. After 5 days, the total number of secondary neurospheres was counted in each condition by microscopy analysis.

[10] = test system: neural stem cells; assay: Self-renewal assay (secondary neurospheres); type: cell-based, rat; conditions: primary neurospheres cultured with peptide, dissociated, 5 days in culture medium only
Experimental: as §3

[11] = test system: PSA-NCAM expression on neural stem cells; assay: PSA-NCAM expression by flow cytometry; type: cell-based, rat; conditions: high peptide concentrations, 7 days
Experimental: To quantify the PSA-NCAM expression on neural stem cells, neurospheres were seeded in 35-mm dishes and cultured for 7 days at 37° C. in media containing biotinylated NFL-TBS.40-63 peptide at increasing concentrations, or containing 1% new-born calf serum (NBCS). After dissociation, cells were incubated with the anti-PSA-NCAM antibody conjugated to R-phycoerythrin (PE) for 10 minutes at 4° C. (Miltenyi), washed and then re-suspended in 50 μg/mL PI. The fluorescent positive cells that expressed PSA-NCAM were analyzed by flow cytometry.

[12] = test system: glioblastoma cells; conditions: glioblastoma cells (Bocquet et al., 2009; Bergès et al., 2012); cited from earlier work
[13] = test system: neurones and astrocytes; conditions: neurones and astrocytes (Bocquet et al., 2009; Bergès et al., 2012); cited from earlier work
[14] = summary of proliferation and adhesion results

COc1cc2c(c(OC)c1OC)-c1ccc(OC)c(=O)cc1[C@@H](NC(C)=O)CC2 [colchicine, reference compound]
neural stem cell proliferation (DNA concentration) ([1]; colchicine, anti-proliferative agent control): significant decrease | cellular cycle of NSC ([2]; 1 μg/mL colchicine, positive control): affected | microtubule network of NSC ([3]; colchicine): profoundly affected | number of viable NSC ([4]; colchicine, three days, Annexin V-FITC and PI): strongly reduced

FITC-peptide: NFL-TBS40-63 peptide coupled to carboxy-fluorescein isothiocyanate (FITC) (YSSYSAPVSSSLSVRRSYSSSSGS; also: coupled to FITC, site not given here; UniProt P07196 40-63, looked up, fragment)
percentage of newborn NSCs that internalized the peptide ([5]; 5 μmol/L FITC-peptide): 38.72±9.08% | percentage of newborn NSCs that internalized the peptide ([5]; 40 μmol/L FITC-peptide): 91.07±5.13% | peptide uptake after quenching of surface-bound fluorescence ([5]; 0.4% trypan blue added before FACS reading): dose-dependent uptake of the peptide similar to that without quenching | maximum threshold of peptide uptake in adult NSC (percentage of fluorescent cells) [6]: 92.74±2.51% | localisation of the peptide in brain sections ([7]; 1 mmol/L FITC peptide in right lateral ventricle of adult rats, 1 hour after injection): localised in the right lateral ventricle, in the ependymal cells and a part was observed in the SVZ | cytotoxicity in vivo ([7]; after injection in right lateral ventricle, confocal analyses): without causing detectable cytotoxicity | internalization of the peptide by confocal microscopy ([3]; NSCs in the neurospheres and progenitor cells in the periphery, 20 μmol/L FITC labelled peptide): confirmed the internalization

YSSYSAPVSSSLSVRRSYSSSSGS (TBS motif of the human light chain neurofilament protein, amino acids) [NFL-TBS40-63 peptide]
peptide uptake under ATP-depletion ([8]; ATP-depleted buffer 30 minutes before peptide, 20 μmol/L FITC labelled peptide): not affected | peptide uptake at 4° C. ([8]; cells at 4° C. 30 minutes before peptide, 20 μmol/L FITC labelled peptide): not affected | peptide uptake in the presence of inhibitors of endocytic and signalling pathways ([8]; chlorpromazine, PMA, DAM, wortmaninn, U0126, genistein, sunitinib, gefitinib pre-treatment 30 min, 20 μmol/L peptide): not affected | adherence of primary neurospheres ([9]; 40 μmol/L peptide): most of primary neurospheres were adherent | number of primary neurospheres compared to untreated control ([9]; increased peptide concentrations, 5 days, except for 100 μmol/L): did not change | adherence of primary neurospheres ([9]; peptide concentrations higher than 40 μmol/L): no floating neurospheres were observed | high concentrations that affect both proliferation and adhesion of neural stem cells [9, 14]: ≥ 40 µmol/L | low concentrations that disrupt cell proliferation without effect on cell attachment [9, 14]: up to 20 μmol/L | numbers of secondary neurospheres compared to control (self-renewal) [10]: significantly lower numbers of secondary neurospheres | PSA-NCAM expression on the neural stem cells [11]: weak decrease | neural stem cell proliferation (DNA concentration) ([1]; increased peptide concentrations, one week (72 h in method)): significant decrease | cellular cycle of NSC ([2]; increased peptide concentrations, 48 h): remained unchanged | cells in G1-phase ([2]; with or without peptide, 48 h): 60-65% | cells in G2/M-phases ([2]; with or without peptide, 48 h): ~7% | cells in S-phase ([2]; with or without peptide, 48 h): ~10% | microtubule network of NSC ([3]; 6 hours of incubation with the peptide (20 μmol/L FITC labelled)): not affected | NSC cell viability [4]: not modified | concentration at which the peptide disrupts microtubule formation and the cellular cycle [12]: higher than 10 μm | microtubule and cellular cycle disruption in normal cells [13]: not observed
